Assay results: ChEMBL document CHEMBL1148653, “Synthesis, structural reassignment, and biological activity of type B MAO inhibitors based on the 5H-indeno[1,2-c]pyridazin-5-one core” (J Med Chem, 2006); call rule not given here

Legend:
[1] = biological target: T1, Amine oxidase [flavin-containing] B (Rattus norvegicus, UniProt P19643); assay: Inhibition of MAO-B in rat brain mitochondria
T1 sequence (P19643 whole entry): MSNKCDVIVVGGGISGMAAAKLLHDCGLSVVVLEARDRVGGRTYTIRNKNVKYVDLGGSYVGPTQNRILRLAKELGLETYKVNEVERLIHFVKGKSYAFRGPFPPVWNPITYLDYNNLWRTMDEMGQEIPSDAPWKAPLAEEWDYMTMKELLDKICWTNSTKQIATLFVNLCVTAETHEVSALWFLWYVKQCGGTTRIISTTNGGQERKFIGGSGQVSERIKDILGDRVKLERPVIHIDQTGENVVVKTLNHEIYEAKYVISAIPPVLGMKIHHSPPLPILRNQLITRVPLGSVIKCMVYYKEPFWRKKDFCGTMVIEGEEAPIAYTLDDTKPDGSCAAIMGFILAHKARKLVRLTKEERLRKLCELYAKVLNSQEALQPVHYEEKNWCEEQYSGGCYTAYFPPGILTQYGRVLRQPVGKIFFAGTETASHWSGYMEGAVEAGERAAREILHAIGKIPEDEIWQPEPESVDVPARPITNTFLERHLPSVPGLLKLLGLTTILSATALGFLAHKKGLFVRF

[2] = biological target: T2, Amine oxidase [flavin-containing] A (Rattus norvegicus, UniProt P21396); assay: Inhibition of MAO-A in rat brain mitochondria
T2 sequence (P21396 whole entry): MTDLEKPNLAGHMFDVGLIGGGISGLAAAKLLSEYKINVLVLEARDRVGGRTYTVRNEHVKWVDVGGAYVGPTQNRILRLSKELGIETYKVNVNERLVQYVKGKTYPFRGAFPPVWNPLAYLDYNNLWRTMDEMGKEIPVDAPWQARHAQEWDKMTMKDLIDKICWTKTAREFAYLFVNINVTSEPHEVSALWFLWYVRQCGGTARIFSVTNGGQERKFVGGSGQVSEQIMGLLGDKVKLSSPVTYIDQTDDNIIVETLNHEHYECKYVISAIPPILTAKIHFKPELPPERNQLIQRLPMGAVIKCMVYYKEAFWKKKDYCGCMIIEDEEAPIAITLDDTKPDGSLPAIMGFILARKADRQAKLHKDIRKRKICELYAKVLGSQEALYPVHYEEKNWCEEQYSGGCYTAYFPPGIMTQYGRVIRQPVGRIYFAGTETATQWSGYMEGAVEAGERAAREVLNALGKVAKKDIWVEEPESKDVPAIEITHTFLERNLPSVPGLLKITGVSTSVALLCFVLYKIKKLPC

[3] = biological target: T3, Amine oxidase [flavin-containing] A (Homo sapiens, UniProt P21397); assay: Inhibition of MAO-A in human placental mitochondria at 5 uM; set-up: species or system Placenta
T3 sequence (P21397 whole entry): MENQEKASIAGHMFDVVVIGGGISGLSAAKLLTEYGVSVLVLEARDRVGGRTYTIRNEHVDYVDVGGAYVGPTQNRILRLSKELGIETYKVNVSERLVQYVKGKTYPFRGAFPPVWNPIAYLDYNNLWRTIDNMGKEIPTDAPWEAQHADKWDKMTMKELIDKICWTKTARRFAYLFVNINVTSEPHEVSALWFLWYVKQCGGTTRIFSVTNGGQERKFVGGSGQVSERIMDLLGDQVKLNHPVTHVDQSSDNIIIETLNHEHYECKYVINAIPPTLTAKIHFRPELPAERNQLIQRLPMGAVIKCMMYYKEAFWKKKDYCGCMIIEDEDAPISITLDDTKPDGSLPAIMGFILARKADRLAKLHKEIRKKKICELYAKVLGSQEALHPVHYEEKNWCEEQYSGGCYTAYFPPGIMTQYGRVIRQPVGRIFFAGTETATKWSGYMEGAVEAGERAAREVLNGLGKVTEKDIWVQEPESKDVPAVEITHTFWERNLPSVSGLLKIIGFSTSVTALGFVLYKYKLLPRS

Row | IC50 [1] | IC50 [2] | Inhibition [3] | Structure (SMILES)
1 | 170 nM | > 1000 nM |  | Cc1cc2c(nn1)-c1cc(OCc3ccccc3)ccc1C2=O
2 | > 1000 nM | > 1000 nM |  | COc1ccc2c(c1)-c1nnc(C)cc1C2=O
3 |  |  | Not Active | COc1ccc2c(c1)C(=O)c1cc(-c3cccc(C(F)(F)F)c3)nnc1-2
4 |  |  | Not Active | COc1ccc2c(c1)-c1nnc(-c3cccc(C(F)(F)F)c3)cc1C2=O
